Read-outs that look alike come from different tables or passages of the source.

The results in this text go back to patent US20200121677A1, “SUBSTITUTED 6,7-DIHYDROPYRAZOLO[1,5-a]PYRAZINES AS NEGATIVE ALLOSTERIC MODULATORS OF MGLUR2 RECEPTORS” (Janssen Pharmaceutica NV, priority 2014, published 2020).

The test system of one data set is Wiga rats. As to the kind of experiment: Induction of mydriasis (pupil diameter, test 1 and test 2). The data set is classed as in vivo, rat. Conditions: route PO; for ED50: Rattus norvegicus. The procedure:
3) Induction of Mydriasis
The pupil diameter of Wiga rats was measured with a microscopic micrometer (1 unit=1/24 mm). Criteria for drug-induced effects: pupil diameter >25 units for mydriasis (in controls: 1.9%) 1 h post-administration of the test compound (test 1) or 1, 2 or 3 h post-administration of the test compound (test 2, wherein the maximum pupil diameter over the full 3 h period is reported).

A further data set deals with rats. As to the kind of experiment: Reversal of the effect of the mGluR2 PAM JNJ-42153605-induced inhibition of scopolamine-induced hyperlocomotion. The data set is classed as in vivo, rat. Conditions: rats, route PO, criterion total distance >1500 cm; for ED50: Rattus norvegicus, read-out: ED50 SCOP JNJ-42153605 (Reversal of the effect of JNJ 42153605 on scopolamine-induced hyperlocomotion). The procedure:
2) Reversal of the Effect of the mGluR2 PAM JNJ-42153605-Induced Inhibition of Scopolamine-Induced Hyperlocomotion
Motor activity was measured in microprocessor-based motor activity arenas (closed gray PVC cylinders with a height of 39 cm and a diameter of 31 cm). Each arena was placed on an infrared LED (8×8 LEDs) lit box (white PVC squared box; 40×40 cm^2; height 12.5 cm. An infrared-sensitive tube camera and a white light source were mounted to the ceiling above the observation chamber to track the animal. The total distance traveled (cm) was recorded and analyzed using the Noldus Ethovision XT Video Tracking System (Version 7.0.418; Noldus, Wageningen, The Netherlands). The intensity of the light within the activity cages (measured in the centre at the level of the floor) ranged between 4 and 8 LUX.
The rats were pretreated with test compound or vehicle at 60 min before the start of the activity recordings and placed into individual cages. The rats were challenged with JNJ-42153605 (3-(cyclopropylmethyl)-7-(4-phenylpiperidin-1-yl)-8-(trifluoromethyl)[1,2,4]triazolo[4,3-a]pyridine; WO2010/130424; Cid et al. J. Med. Chem. 2012, 55, 8770-8789) (20 mg/kg, i.v.) 30 min before the start of the activity recording combined with scopolamine (0.16 mg/kg, i.v.) just before the start of the activity measurements. Immediately after the injection of scopolamine, the rats were placed into the activity monitors and total distance traveled over the first 30 min was measured.
For reversal of the inhibitory effect of JNJ-42153605 on the scopolamine-induced hyperlocomotion, the following all-or-none criteria were adopted: (1) reversal: total distance >1500 cm.

The next data set concerns the target human mGlu2 receptor (Homo sapiens, UniProt Q14416). As to the kind of experiment: [35S]GTPγS binding assay, mGluR2 negative allosteric modulation (membranes from CHO cells transfected with human mGlu2 receptor, glutamate ~EC80 60 μM).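 On all read-outs here: membranes preincubated 30 min at 30 °C with compound plus glutamate, then [35S]GTPγS (0.1 nM) incorporation measured over another 30 min at 30 °C.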 The conditions noted are these: for IC50: GTPγS - hmGluR2 anGT pIC50, membranes with human mGlu2 receptor; for IC50 / GTPγS - hmGluR2 anGT pIC50: glutamate ~EC80 (60 μM), pIC50 = -log IC50 (M); for Emax: read-out: GTPγS - hmGluR2 anGT Emax, relative maximal effect: maximal % inhibition relative to the control glutamate response; for GTPγS - hmGluR2 anGT pIC50: membranes with human mGlu2 receptor; for GTPγS - hmGluR2 anGT Emax: relative maximal effect: maximal % inhibition relative to the control glutamate response. On the technique in general: Binding of GTPγS marks nucleotide exchange on a G protein.

The next data set deals with Male Wiga Wistar rats. As to the kind of experiment: Reversal of LY-404039-induced decrease of palpebral opening in apomorphine-challenged rats. The data set is classed as in vivo, rat. Conditions: rats, route PO (route cell empty for Co. 88 and 84); for ED50: Rattus norvegicus, read-out: ED50 APO LY-404039 (Reversal of LY-404039-induced decrease of palpebral opening in apomorphine challenged rats). Here is the method: 1) Reversal of LY-404039-Induced Decrease of Palpebral Opening in Apomorphine-Challenged Rats.
Male Wiga Wistar rats (Crl:WI; Charles River Germany; 220±40 g) were housed under standard laboratory conditions (21±2° C.; 50-65% relative humidity; light-dark cycle set at 12 h; lights on at 6.00 h) and fasted overnight prior to the start of the experiments (tap water remained available ad libitum). During the test period, they were housed in individual cages. Palpebral opening was scored every 5 min over the first hour after injection of apomorphine (1.0 mg/kg, i.v.) in animals either pretreated or not pretreated with LY-404039 (2.5 mg/kg, s.c.) at 1 h prior to the apomorphine injection. The animals were also pretreated with test compound or solvent at a predefined interval before apomorphine challenge. The score system was: (5) exophthalmos, (4) wide open, (3) open for three-quarters, (2) half open, (1) open for one-quarter, (0) closed. The scores for palpebral opening were cumulated over the 60-min observation period.

[1] abbreviates: pupil diameter >25 units, maximum over 1, 2 or 3 h post-administration, read-out: ED50 MYD Test 2 (Induction of mydriasis).
[2] abbreviates: pupil diameter >25 units, maximum over 1, 2 or 3 h post-administration.

human mGlu2 receptor, sequence (Q14416 19-872): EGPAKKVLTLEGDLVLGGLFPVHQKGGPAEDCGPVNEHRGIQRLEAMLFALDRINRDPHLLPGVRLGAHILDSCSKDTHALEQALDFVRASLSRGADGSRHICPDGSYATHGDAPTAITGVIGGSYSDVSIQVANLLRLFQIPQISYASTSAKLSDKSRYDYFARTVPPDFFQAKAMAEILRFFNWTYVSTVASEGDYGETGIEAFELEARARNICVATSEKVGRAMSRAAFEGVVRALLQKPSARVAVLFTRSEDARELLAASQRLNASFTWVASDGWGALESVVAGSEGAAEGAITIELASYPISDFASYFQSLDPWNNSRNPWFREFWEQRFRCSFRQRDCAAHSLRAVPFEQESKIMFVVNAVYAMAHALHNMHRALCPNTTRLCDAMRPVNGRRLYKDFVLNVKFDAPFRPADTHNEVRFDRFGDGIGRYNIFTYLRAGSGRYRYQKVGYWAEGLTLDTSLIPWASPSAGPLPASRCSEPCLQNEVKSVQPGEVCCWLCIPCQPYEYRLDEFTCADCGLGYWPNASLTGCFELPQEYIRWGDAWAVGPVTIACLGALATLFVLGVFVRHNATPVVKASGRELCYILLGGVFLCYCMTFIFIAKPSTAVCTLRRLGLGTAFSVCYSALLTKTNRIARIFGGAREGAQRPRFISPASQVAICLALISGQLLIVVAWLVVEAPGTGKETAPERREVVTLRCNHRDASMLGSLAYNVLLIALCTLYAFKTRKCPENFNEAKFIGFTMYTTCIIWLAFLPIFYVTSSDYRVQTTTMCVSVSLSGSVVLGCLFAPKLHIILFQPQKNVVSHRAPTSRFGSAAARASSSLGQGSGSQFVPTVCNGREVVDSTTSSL
Procedure for human mGlu2 receptor: The [^35S]GTPγS binding assay is a functional membrane-based assay used to study G-protein coupled receptor (GPCR) function whereby incorporation of a non-hydrolysable form of GTP, [^35S]GTPγS (guanosine 5′-triphosphate, labelled with gamma-emitting ^35S), is measured. […] Here we describe the use of the [^35S]GTPγS binding assay using membranes from cells transfected with the human mGlu2 receptor and adapted from Schaffhauser et al. (Molecular Pharmacology, 2003, 4:798-810) for the detection of the negative allosteric modulation (NAM) properties of the compounds of this invention.
CHO-cells were cultured to pre-confluence and stimulated with 5 mM butyrate for 24 h. Cells were then collected by scraping in PBS and cell suspension was centrifuged (10 min at 4000 RPM in benchtop centrifuge). Supernatant was discarded and pellet gently resuspended in 50 mM Tris-HCl, pH 7.4 by mixing with an Ultra Turrax homogenizer. The suspension was centrifuged at 12,400 RPM (Sorvall F14S-6x250Y) for 10 minutes and the supernatant discarded. The pellet was homogenized in 5 mM Tris-HCl, pH 7.4 using an Ultra Turrax homogenizer and centrifuged again (13,000 RPM, 20 min, 4° C.). The final pellet was resuspended in 50 mM Tris-HCl, pH 7.4 and stored at −80° C. in appropriate aliquots before use. Protein concentration was determined by the Bradford method (Bio-Rad, USA) with bovine serum albumin as standard.
Measurement of mGluR2 negative allosteric modulatory activity of test compounds was performed as follows. Test compounds and glutamate were diluted in assay buffer containing 10 mM HEPES acid, 10 mM HEPES salt, pH 7.4, 100 mM NaCl, 3 mM MgCl2 and 10 μM GDP. Human mGlu2 receptor-containing membranes were thawed on ice and diluted in assay buffer supplemented with 18 μg/ml saponin. Membranes were pre-incubated with compound together with a predefined (˜EC80) concentration of glutamate (60 μM) for 30 min at 30° C. After addition of [^35S]GTPγS (f.c. 0.1 nM), assay mixtures were shaken briefly and further incubated to allow [^35S]GTPγS incorporation on activation (30 minutes, 30° C.). Final assay mixtures contained 7 μg of membrane protein in 10 mM HEPES acid, 10 mM HEPES salt, pH 7.4, 100 mM NaCl, 3 mM MgCl2, 10 μM GDP and 10 μg/ml saponin. Total reaction volume was 200 μl. Reactions were terminated by rapid filtration through Unifilter-96 GF/B plates (Perkin Elmer, Massachusetts, USA) using a 96-well filtermate universal harvester. Filters were washed 6 times with ice-cold 10 mM NaH2PO4/10 mM Na2HPO4, pH 7.4. Filters were then air-dried, and 30 μl of liquid scintillation cocktail (Microscint-O) was added to each well. Membrane-bound radioactivity was counted in a Topcount.
Data were calculated as % of the control glutamate response, defined as the response that is generated upon addition of an EC80-equivalent concentration of glutamate.

With `C[C@H]1CN(c2ccc(C(F)(F)F)cc2)C(=O)c2c(C(=O)Nc3cccnc3)cnn21` [compound 1, (7S)-7-methyl-4-oxo-N-(3-pyridyl)-5-[4-(trifluoromethyl)phenyl]-6,7-dihydropyrazolo[1,5-a]pyrazine-3-carboxamide], the melting point (in general, the temperature, or range, at which the solid turns liquid) turned out to be 167.35 °C. Besides, the ED50 (commonly the dose that gives a 50% effect, or the effect in half of the subjects) with Wiga rats (setting [1]) was greater than 40 mg/kg. Moreover, the ED50 with rats worked out at 0.2 mg/kg. Besides, on human mGlu2 receptor, the IC50 (usually the midpoint of a concentration-inhibition curve) is 1.91e-09 M and the Emax (usually the maximal effect, on the per cent scale that the assay sets) is 111%. In the data set with Male Wiga Wistar rats, the ED50 was 0.39 mg/kg.
`Cc1cc(NC(=O)c2cnn3c2C(=O)N(c2ccc(C(F)(F)F)cc2)C[C@@H]3C)ccn1` [compound 5]: the melting point is 215 °C. Further, the 50% effective dose (ED50) in the data set on Wiga rats (pupil diameter >25 units 1 h post-administration, read-out: ED50 MYD Test 1 (Induction of mydriasis)) is greater than 10 mg/kg. The ED50 in the data set with rats is 1.27 mg/kg. Moreover, at human mGlu2 receptor, the half-maximal inhibitory concentration (IC50) is 3.02e-09 M and the Emax was 105%. The ED50 in the data set with Male Wiga Wistar rats came to 0.32 mg/kg.
As to `C[C@H]1CN(c2ccc(C(F)(F)F)c(F)c2)C(=O)c2c(C(=O)Nc3cccnc3)cnn21` [compound 21], the “ED50 MYD Test 2 (Induction of mydriasis)” value in the data set with Wiga rats (setting [2]) was found to be 7.9 mg/kg. The “ED50 SCOP JNJ-42153605 (Reversal of the effect of JNJ 42153605 on scopolamine-induced hyperlocomotion)” value in the data set on rats is reported as 0.32 mg/kg. Further, on human mGlu2 receptor, the “GTPγS - hmGluR2 anGT pIC50” value is listed as 8.72 and the “GTPγS - hmGluR2 anGT Emax” value is 108%.
In the same order, the values of `C[C@H]1CN(c2ccc(Cl)c(Cl)c2)C(=O)c2c(C(=O)Nc3cccnc3)cnn21` [compound 26] are 5 mg/kg, 0.32 mg/kg, 9.08 and 107%.
In the same order, the values of `C[C@H]1CN(c2ccc(Cl)c(Cl)c2)C(=O)c2c(C(=O)Nc3cncc(F)c3)cnn21` [compound 27] are greater than 10 mg/kg, 0.32 mg/kg, 9.09 and 108%.
`Cc1ccncc1NC(=O)c1cnn2c1C(=O)N(c1ccc(Cl)c(Cl)c1)C[C@@H]2C` [compound 30] had a melting point of 225 °C. For the same compound, the ED50 with Wiga rats (setting [1]) turned out to be 3.1 mg/kg. In addition, the ED50 in the data set with rats worked out at 0.51 mg/kg. At human mGlu2 receptor, the IC50 is 1.1e-09 M and the maximal effect (Emax) is 111%.
Turning to `Cc1cc(N2C[C@H](C)n3ncc(C(=O)Nc4cccnc4)c3C2=O)ccc1C(F)(F)F` [compound 36, (7S)-7-Methyl-5-[3-methyl-4-(trifluoromethyl)phenyl]-4-oxo-N-(3-pyridyl)-6,7-dihydropyrazolo[1,5-a]pyrazine-3-carboxamide], the melting point worked out at 156.85 °C. In addition, in the data set with Wiga rats (setting [1]), the ED50 is 20 mg/kg. Besides, in the data set with rats, the ED50 came out at 0.2 mg/kg. In addition, on human mGlu2 receptor, the IC50 was 8.51e-10 M and the Emax came out at 111%.
In the same order, the values of `Cc1ccncc1NC(=O)c1cnn2c1C(=O)N(c1ccc(C(F)(F)F)c(C)c1)C[C@@H]2C` [compound 38] are 186.5 °C, 2 mg/kg, 0.2 mg/kg, 1.15e-09 M and 108%.
In the same order, the values of `Cc1cc(N2C[C@H](C)n3ncc(C(=O)Nc4cncc(F)c4)c3C2=O)ccc1C(F)(F)F` [compound 39] are 144.6 °C, 5 mg/kg, 0.32 mg/kg, 9.33e-10 M and 112%.
The matching figures for `C[C@H]1CN(c2ccc(C(F)(F)F)c(Cl)c2)C(=O)c2c(C(=O)Nc3cccnc3)cnn21` [compound 47]: 140.43 °C, 32 mg/kg, 0.5 mg/kg, 1.07e-09 M and 109%.
Consider `Cc1cc(NC(=O)c2cnn3c2C(=O)N(c2ccc(C(F)(F)F)cc2)C[C@@H]3C)cc(C)n1` [compound 101], for which the “ED50 MYD Test 2 (Induction of mydriasis)” value with Wiga rats (setting [2]) is recorded as greater than 10 mg/kg. Further, the “ED50 SCOP JNJ-42153605 (Reversal of the effect of JNJ 42153605 on scopolamine-induced hyperlocomotion)” value in the data set with rats was 0.5 mg/kg. In addition, at human mGlu2 receptor, the “GTPγS - hmGluR2 anGT pIC50” value is on record as 8.57 and the “GTPγS - hmGluR2 anGT Emax” value came out at 118%. The “ED50 APO LY-404039 (Reversal of LY-404039-induced decrease of palpebral opening in apomorphine challenged rats)” value in the data set with Male Wiga Wistar rats was determined as 0.79 mg/kg.
In the case of `Cc1cc(NC(=O)c2cnn3c2C(=O)N(c2ccc(C(F)(F)F)c(Cl)c2)C[C@@H]3C)ccn1` [compound 109], in the data set on Wiga rats (setting [2]), the “ED50 MYD Test 2 (Induction of mydriasis)” value came out at 32 mg/kg. Moreover, in the data set with rats, the “ED50 SCOP JNJ-42153605 (Reversal of the effect of JNJ 42153605 on scopolamine-induced hyperlocomotion)” value is 0.32 mg/kg. Further, on human mGlu2 receptor, the “GTPγS - hmGluR2 anGT pIC50” value was 8.91 and the “GTPγS - hmGluR2 anGT Emax” value is recorded as 109%.
Consider `C[C@H]1CN(c2ccc(Cl)c(Cl)c2)C(=O)c2c(C(=O)Nc3cnccn3)cnn21` [compound 116], for which the melting point was determined as 213.63 °C. Moreover, in the data set with Wiga rats (setting [1]), the ED50 came out at 5 mg/kg. In addition, the ED50 with rats is 0.05 mg/kg. For the same compound, on human mGlu2 receptor, the IC50 was 1.35e-09 M and the Emax was 109%.
In the same order, the values of `COc1cc(N2C[C@H](C)n3ncc(C(=O)Nc4cncc(F)c4)c3C2=O)ccc1C(F)(F)F` [compound 117] are 259 °C, greater than 10 mg/kg, 0.51 mg/kg, 3.72e-09 M and 105%.
Consider `Cc1cc(NC(=O)c2cnn3c2C(=O)N(c2ccc(Cl)c(Cl)c2)C[C@@H]3C)cc(C)n1` [compound 118], for which the “ED50 MYD Test 2 (Induction of mydriasis)” value in the data set on Wiga rats (setting [2]) is 1.3 mg/kg. The “ED50 SCOP JNJ-42153605 (Reversal of the effect of JNJ 42153605 on scopolamine-induced hyperlocomotion)” value with rats is greater than 0.63 mg/kg. For the same compound, at human mGlu2 receptor, the “GTPγS - hmGluR2 anGT pIC50” value is on record as 8.8 and the “GTPγS - hmGluR2 anGT Emax” value came to 105%. Besides, in the data set with Male Wiga Wistar rats, the “ED50 APO LY-404039 (Reversal of LY-404039-induced decrease of palpebral opening in apomorphine challenged rats)” value was greater than 0.63 mg/kg.
`Cc1c(F)cncc1NC(=O)c1cnn2c1C(=O)N(c1ccc(C(F)(F)F)cc1)C[C@@H]2C` [compound 124, (7S)—N-(5-Fluoro-4-methyl-3-pyridyl)-7-methyl-4-oxo-5-[4-(trifluoromethyl)phenyl]-6,7-dihydropyrazolo[1,5-a]pyrazine-3-carboxamide] displayed a melting point of 194.5 °C. For the same compound, the ED50 with Wiga rats (setting [1]) was greater than 40 mg/kg. Besides, in the data set on rats, the ED50 was 0.2 mg/kg. On human mGlu2 receptor, the half-maximal inhibitory concentration (IC50) was 2.24e-09 M and the Emax was 107%.
`COc1cncc(NC(=O)c2cnn3c2C(=O)N(c2ccc(C(F)(F)F)cc2)C[C@@H]3C)c1` [compound 144] returned a melting point of 197.8 °C. Besides, in the data set with rats, the median effective dose (ED50) was determined as 1.01 mg/kg. On human mGlu2 receptor, the IC50 is 4.79e-09 M and the Emax was 114%. Also, the ED50 in the data set with Male Wiga Wistar rats was 1.99 mg/kg.
In the case of `C[C@H]1CN(c2ccc(Cl)cc2)C(=O)c2c(C(=O)Nc3cnccn3)cnn21` [compound 162], the melting point was 250.1 °C. Further, in the data set on Wiga rats (setting [1]), the ED50 is greater than 10 mg/kg. Further, in the data set with rats, the ED50 was determined as 0.13 mg/kg. On human mGlu2 receptor, the IC50 was 6.76e-09 M and the Emax was 109%.
